In the NIST ThermoML archive (doi:10.1016/j.fluid.2012.09.026):
Where “and” joins values, the source holds several entries; their conditions need not be identical. Identical values can stand only once.

Experiments:
[1] = for vapor or sublimation pressure: Closed cell (Static) method
[2] = molar heat capacity at constant volume; conditions: Vacuum adiabatic calorimetry

CCCCO [butan-1-ol]
[1], Liquid
Conditions | vapor or sublimation pressure
496.62 K | 1529 kPa
497.54 K | 1549 kPa
497.6 K | 1555 kPa
497.65 K | 1555 kPa
497.7 K | 1559 kPa
497.97 K | 1559 kPa
506.74 K | 1834 kPa
506.84 K | 1834 kPa
507.01 K | 1854 kPa and 1844 kPa
507.23 K | 1844 kPa
507.25 K | 1844 kPa
507.3 K | 1854 kPa
518.64 K | 2241 kPa
518.91 K | 2246 kPa
518.99 K | 2248 kPa
519.06 K | 2248 kPa
519.2 K | 2252 kPa
528.31 K | 2622 kPa
531.38 K | 2776 kPa
532.65 K | 2804 kPa
533.03 K | 2834 kPa
533.2 K | 2834 kPa
533.4 K | 2838 kPa
537.47 K | 3029 kPa
539.69 K | 3127 kPa
541.16 K | 3205 kPa
541.95 K | 3245 kPa
542.81 K | 3295 kPa
543.19 K | 3293 kPa
543.3 K | 3315 kPa
543.89 K | 3315 kPa
546.79 K | 3456 kPa
548.49 K | 3579 kPa
550.45 K | 3647 kPa
555.53 K | 3983 kPa
555.6 K | 3945 kPa
555.7 K | 3941 kPa
556.16 K | 3963 kPa
557.65 K | 4075 kPa
559.05 K | 4168 kPa
559.33 K | 4181 kPa

Conditions | mass density [kg/m3] | molar heat capacity at constant volume [J/K/mol] | specific volume [m3/kg]
[1], 520 K, Gas, isochoric method | – | – | 0.01653
[1], 520 K, Liquid, isochoric method | – | – | 0.001879
[1], 530 K, Gas, isochoric method | – | – | 0.01351
[1], 530 K, Liquid, isochoric method | – | – | 0.001974
[1], 533.45 K, Gas, isochoric method | – | – | 0.01243
[1], 533.45 K, Liquid, isochoric method | – | – | 0.002001
[1], 540 K, Gas, isochoric method | – | – | 0.01078
[1], 540 K, Liquid, isochoric method | – | – | 0.002103
[1], 540.57 K, Liquid, Isochoric Breaking Point | 470 | – | –
[1], 547.36 K, Gas, Isochoric Breaking Point | 113.76 | – | –
[1], 550 K, Gas, isochoric method | – | – | 0.008333
[1], 550 K, Liquid, isochoric method | – | – | 0.002288
[1], 558.65 K, Gas, Isochoric Breaking Point | 167.7 | – | –
[1], 560 K, Gas, isochoric method | – | – | 0.005682
[1], 560 K, Liquid, isochoric method | – | – | 0.002717
[1], 561 K, Gas, isochoric method | – | – | 0.005319
[1], 561 K, Liquid, isochoric method | – | – | 0.002792
[1], 561.08 K, Liquid, Isochoric Breaking Point | 345.9 | – | –
[1], 561.85 K, Gas, Isochoric Breaking Point | 203.9 | – | –
[1], 562 K, Gas, isochoric method | – | – | 0.004879
[1], 562 K, Liquid, isochoric method | – | – | 0.002985
[1], 563 K, Gas, isochoric method | – | – | 0.0046
[1], 563 K, Liquid, isochoric method | – | – | 0.003108
[1], 563.04 K, Liquid, Isochoric Breaking Point | 270 | – | –
[2], 520 K, Gas, Specific volume=0.016529 m3/kg | – | 236.45 | –
[2], 520 K, Liquid, Specific volume=0.001879 m3/kg | – | 220.88 | –
[2], 530 K, Gas, Specific volume=0.013513 m3/kg | – | 243.12 | –
[2], 530 K, Liquid, Specific volume=0.001974 m3/kg | – | 220.22 | –
[2], 533.45 K, Gas, Specific volume=0.012425 m3/kg | – | 246.16 | –
[2], 533.45 K, Liquid, Specific volume=0.002001 m3/kg | – | 220.22 | –
[2], 540 K, Gas, Specific volume=0.010776 m3/kg | – | 252.01 | –
[2], 540 K, Liquid, Specific volume=0.002103 m3/kg | – | 220.14 | –
[2], 550 K, Gas, Specific volume=0.008333 m3/kg | – | 260.91 | –
[2], 550 K, Liquid, Specific volume=0.002288 m3/kg | – | 220.88 | –
[2], 560 K, Gas, Specific volume=0.005682 m3/kg | – | 281.74 | –
[2], 560 K, Liquid, Specific volume=0.002717 m3/kg | – | 228.37 | –
[2], 561 K, Gas, Specific volume=0.005319 m3/kg | – | 286.85 | –
[2], 561 K, Liquid, Specific volume=0.002792 m3/kg | – | 235.71 | –
[2], 562 K, Gas, Specific volume=0.004879 m3/kg | – | 294.26 | –
[2], 562 K, Liquid, Specific volume=0.002985 m3/kg | – | 247.57 | –
[2], 563 K, Gas, Specific volume=0.0046 m3/kg | – | 303.9 | –
[2], 563 K, Liquid, Specific volume=0.003108 m3/kg | – | 258.68 | –
[2], 563.21 K, Fluid (supercritical or subcritical phases), Mass density=270 kg/m3 | – | 356.16 | –
[2], 563.39 K, Fluid (supercritical or subcritical phases), Mass density=270 kg/m3 | – | 317.24 | –
[2], 563.57 K, Fluid (supercritical or subcritical phases), Mass density=270 kg/m3 | – | 306.86 | –
[2], 564.81 K, Fluid (supercritical or subcritical phases), Mass density=270 kg/m3 | – | 294.63 | –
[2], 564.99 K, Fluid (supercritical or subcritical phases), Mass density=270 kg/m3 | – | 292.04 | –
[2], 565.17 K, Fluid (supercritical or subcritical phases), Mass density=270 kg/m3 | – | 290.19 | –
[2], 566.6 K, Fluid (supercritical or subcritical phases), Mass density=270 kg/m3 | – | 282.4 | –
[2], 566.77 K, Fluid (supercritical or subcritical phases), Mass density=270 kg/m3 | – | 280.18 | –
[2], 566.95 K, Fluid (supercritical or subcritical phases), Mass density=270 kg/m3 | – | 279.81 | –
[2], 567.13 K, Fluid (supercritical or subcritical phases), Mass density=270 kg/m3 | – | 277.59 | –
[2], 569.09 K, Fluid (supercritical or subcritical phases), Mass density=270 kg/m3 | – | 269.8 | –
[2], 569.26 K, Fluid (supercritical or subcritical phases), Mass density=270 kg/m3 | – | 269.06 | –
[2], 569.44 K, Fluid (supercritical or subcritical phases), Mass density=270 kg/m3 | – | 268.32 | –
[2], 573.52 K, Fluid (supercritical or subcritical phases), Mass density=270 kg/m3 | – | 259.06 | –
[2], 573.67 K, Fluid (supercritical or subcritical phases), Mass density=270 kg/m3 | – | 257.94 | –
[2], 582.51 K, Fluid (supercritical or subcritical phases), Mass density=270 kg/m3 | – | 246.83 | –
[2], 582.69 K, Fluid (supercritical or subcritical phases), Mass density=270 kg/m3 | – | 246.08 | –
[2], 582.86 K, Fluid (supercritical or subcritical phases), Mass density=270 kg/m3 | – | 246.08 | –
[2], 583.22 K, Fluid (supercritical or subcritical phases), Mass density=270 kg/m3 | – | 245.34 | –
[2], 590.92 K, Fluid (supercritical or subcritical phases), Mass density=270 kg/m3 | – | 240.15 | –
[2], 591.07 K, Fluid (supercritical or subcritical phases), Mass density=270 kg/m3 | – | 240.52 | –
[2], 591.23 K, Fluid (supercritical or subcritical phases), Mass density=270 kg/m3 | – | 239.41 | –
[2], 591.62 K, Fluid (supercritical or subcritical phases), Mass density=270 kg/m3 | – | 239.41 | –
[2], 598.76 K, Fluid (supercritical or subcritical phases), Mass density=270 kg/m3 | – | 235.34 | –
[2], 599.1 K, Fluid (supercritical or subcritical phases), Mass density=270 kg/m3 | – | 236.08 | –
[2], 599.28 K, Fluid (supercritical or subcritical phases), Mass density=270 kg/m3 | – | 235.71 | –
[2], 599.63 K, Fluid (supercritical or subcritical phases), Mass density=270 kg/m3 | – | 234.97 | –
[2], 605.17 K, Fluid (supercritical or subcritical phases), Mass density=270 kg/m3 | – | 232.74 | –
[2], 605.35 K, Fluid (supercritical or subcritical phases), Mass density=270 kg/m3 | – | 232.37 | –
[2], 606.21 K, Fluid (supercritical or subcritical phases), Mass density=270 kg/m3 | – | 232 | –
[2], 606.56 K, Fluid (supercritical or subcritical phases), Mass density=270 kg/m3 | – | 232 | –
[2], 609.49 K, Fluid (supercritical or subcritical phases), Mass density=270 kg/m3 | – | 231.26 | –
[2], 609.67 K, Fluid (supercritical or subcritical phases), Mass density=270 kg/m3 | – | 230.52 | –
[2], 609.84 K, Fluid (supercritical or subcritical phases), Mass density=270 kg/m3 | – | 230.89 | –
[2], 621.18 K, Fluid (supercritical or subcritical phases), Mass density=270 kg/m3 | – | 227.55 | –
[2], 621.53 K, Fluid (supercritical or subcritical phases), Mass density=270 kg/m3 | – | 226.81 | –
[2], 622.22 K, Fluid (supercritical or subcritical phases), Mass density=270 kg/m3 | – | 226.07 | –
[2], 637.42 K, Fluid (supercritical or subcritical phases), Mass density=270 kg/m3 | – | 225.33 | –
[2], 637.77 K, Fluid (supercritical or subcritical phases), Mass density=270 kg/m3 | – | 223.11 | –

[1], isochoric method
Conditions | mass density [kg/m3]
528.31 K, 2642 kPa, Gas | 113.76
531.38 K, 2775 kPa, Gas | 167.7
533.03 K, 2834 kPa, Gas | 203.9
539.69 K, 3127 kPa, Gas | 113.76
543.3 K, 3315 kPa, Gas | 113.76
543.89 K, 3315 kPa, Gas | 167.7
546.79 K, 3456 kPa, Gas | 113.76
548.15 K, 3531 kPa, Gas | 113.76
548.49 K, 3579 kPa, Gas | 203.9
550.05 K, 4256 kPa, Liquid | 470
550.45 K, 3647 kPa, Gas | 167.7
551.66 K, 3610 kPa, Gas | 113.76
555.53 K, 3893 kPa, Gas | 167.7
555.7 K, 3941 kPa, Gas | 203.9
557.65 K, 4020 kPa, Gas | 167.7
558.64 K, 3788 kPa, Gas | 113.76
559.33 K, 4118 kPa, Gas | 203.9
561.09 K, 6138 kPa, Liquid | 470
562.14 K, 4275 kPa, Gas | 167.7
563.04 K, 4340 kPa, Gas | 203.9
564.02 K, 4461 kPa, Liquid | 270
565.29 K, 4559 kPa, Liquid | 345.9
568.44 K, 4598 kPa, Gas | 203.9
569.15 K, 4559 kPa, Gas | 167.7
569.8 K, 4775 kPa, Liquid | 270
572.54 K, 5138 kPa, Liquid | 345.9
574.48 K, 4178 kPa, Gas | 113.76
577.73 K, 5059 kPa, Gas | 203.9
580.8 K, 5000 kPa, Gas | 167.7
582.21 K, 5647 kPa, Liquid | 270
583.19 K, 6118 kPa, Liquid | 345.9
584.19 K, 10275 kPa, Liquid | 470
588.79 K, 5613 kPa, Gas | 203.9
590.87 K, 4586 kPa, Gas | 113.76
593.16 K, 5452 kPa, Gas | 167.7
593.16 K, 6393 kPa, Liquid | 270
600.42 K, 6162 kPa, Gas | 203.9
604.17 K, 5852 kPa, Gas | 167.7
605.17 K, 4925 kPa, Gas | 113.76
605.88 K, 7197 kPa, Liquid | 270
606.77 K, 8197 kPa, Liquid | 345.9
614.97 K, 6834 kPa, Gas | 203.9
616.27 K, 6275 kPa, Gas | 167.7
616.28 K, 5197 kPa, Gas | 113.76
